These are literature values, as cited in the CATMoS acute toxicity set (Mansouri et al. 2021).

Values joined by “and” are separate entries in the source; they are usually repeats but may differ in a detail not shown here. Equal values may be shown once.

The series in a line: rat acute oral toxicity. The note with it: in vivo.
Usually LD50 stands for the dose at which mortality reaches 50%. On to `CCOP(=S)(OCC)SCn1ncccc1=O`, for which the LD50 was 2.5 mg/kg.

Take `O=C(O)Cc1ccccc1`: the LD50 was 2250 mg/kg. With `O=C1C(=NNc2ccccc2S(=O)(=O)O)C(S(=O)(=O)O)=Cc2cc(S(=O)(=O)O)cc(Nc3nc(Cl)nc(Nc4ccccc4)n3)c21`, the LD50 is 6730 mg/kg. As to `COc1cc2c(cc1OC)-c1c(OC)c(OC)cc3c1[C@H](C2)N(C)CC3`, the LD50 was 545 mg/kg. With `CNC(=O)Oc1ccc(CCC#N)cc1`, the LD50 is 620 mg/kg. For `CCCCOCC(O)COc1ccccc1` (stereo not drawn), the LD50 is 2370 mg/kg.

With `Cc1nc(NCc2ccccc2)c2cc[nH]c2n1`, the LD50 is 80 mg/kg. Turning to `CCCCN1CCCN=C1C(OCC)c1ccccc1` (stereo not drawn), the LD50 is 220 mg/kg. For the molecule `CCC(CCN(CC=C(C)C)CC=C(C)C)(C(N)=O)c1cccc2ccccc12` (stereo not drawn), the LD50 was 283 mg/kg. `Cc1ccccc1C(O)(c1ccccc1)C(C)CN(C)C` (stereo not drawn): the 50% lethal dose (LD50) was 185 mg/kg. Regarding `CCOC(C1=NCC(OC)CN1)c1ccccc1` (stereo not drawn), the LD50 is 875 mg/kg. In the case of `COc1cc(C=CC(=O)N2CCN(CC(=O)NC(C)C)CC2)cc(OC)c1OC`, the LD50 was 1300 mg/kg. For `O=[N+]([O-])c1ccc(NS(=O)(=O)c2ccc(Cl)c(C(F)(F)F)c2)c(Cl)c1`, the LD50 is 132 mg/kg.

In the case of `CC=CC(=O)OC(C=CC)OC(=O)C=CC` (stereo not drawn), the LD50 was 2590 mg/kg. In the case of `NC(=S)NC(N)=S`, the LD50 is 5 mg/kg. With `CC(C)c1ccc(NC(=O)N(C)C)cc1`, the LD50 was 1830 mg/kg. Consider `O=C(O)CONC(=O)c1ccccc1`, for which the LD50 is 2500 mg/kg. With `CC(=O)OCC1=C(C(=O)O)N2C(=O)[C@@H](NC(=O)CSc3ccncc3)[C@H]2SC1`, the LD50 was 16400 mg/kg. Consider `Cc1cccc(C(=O)c2ccccc2)c1C`, for which the LD50 is 4920 mg/kg. With `O=C(O)CNCP(=O)(O)O`, the 50% lethal dose (LD50) was 4870 mg/kg and 10500 mg/kg.

On to `O=C1C=CC(=O)N1C(=O)NCNC(=O)N1C(=O)C=CC1=O`, for which the LD50 was 1420 mg/kg. Take `Cc1ccc(C)n1Nc1ccc(N2CCOCC2)nn1`: the LD50 was 2250 mg/kg. For the molecule `Cc1cc2[nH]c(C(F)(F)F)nc2cc1Cl`, the LD50 was 55 mg/kg. As to `CC(C)c1ccc(CO)cc1`, the LD50 is 1020 mg/kg. Consider `CCCCCCCCCCCCCCCCCC1=NC(C)CC(C)(C)N1` (stereo not drawn), for which the LD50 was 493 mg/kg.

Turning to `COC(=O)C1C2C=CC(C2)C1C(=O)OC` (stereo not drawn), the LD50 is 1000 mg/kg. As to `C[C@H]1O[C@@H](O[C@H]2[C@@H](O)C[C@H](O[C@H]3[C@@H](O)C[C@H](O[C@H]4CC[C@@]5(C)[C@H](CC[C@@H]6[C@@H]5C[C@@H](O)[C@]5(C)[C@@H](C7=CC(=O)OC7)CC[C@]65O)C4)O[C@@H]3C)O[C@@H]2C)C[C@H](O)[C@@H]1O`, the LD50 is 28.3 mg/kg.

For the molecule `CCCCCCC1=CC(=O)CC(c2ccc3c(c2)OCO3)C1` (stereo not drawn), the LD50 was 5200 mg/kg. Consider `CCCCCCC[N+](CC)(CC)CCCCc1ccc(Cl)cc1`, for which the 50% lethal dose (LD50) is 456 mg/kg. `COc1ccc2c(c1)c(CC(=O)Oc1cccc(C(F)(F)F)c1)c(C)n2C(=O)c1ccc(Cl)cc1`: the LD50 is 307 mg/kg.

Take `O=C(O)Cc1c(Cl)ccc(Cl)c1Cl`: the LD50 was 1780 mg/kg. With `CCCCNC(=O)c1ccccc1`, the LD50 was 5140 mg/kg. For `NC1Cc2ccccc2C1`, the LD50 was 326 mg/kg. For `CCOC(=O)c1c[n+](C)c2n(c1=O)C(C)CCC2` (stereo not drawn), the LD50 was 1500 mg/kg. Regarding `CC(=O)CO`, the LD50 is 2200 mg/kg. With `CS(=O)C(C)(C)C(N)=O` (stereo not drawn), the LD50 was 16000 mg/kg. For the molecule `C1=Cc2cccc(OCC3CNCCO3)c2C1` (stereo not drawn), the LD50 was 502 mg/kg.

`CC(=NOC(=O)N(C)SSN(C)C(=O)ON=C(C)SCCC#N)SCCC#N`: the LD50 is 80 mg/kg.

Take `Nc1cc(S(=O)(=O)O)cc2cc(S(=O)(=O)O)c(/N=N\c3ccc(-c4ccc(/N=N/c5c(S(=O)(=O)O)cc6cc(S(=O)(=O)O)cc(N)c6c5O)cc4)cc3)c(O)c12`: the LD50 is 8760 mg/kg. As for `CCCCN(CCCC)CC(C)O` (stereo not drawn), the median lethal dose (LD50) is 1990 mg/kg. Consider `Cc1cc(C(=O)Nc2ccccc2)c(C)o1`, for which the LD50 is 64 mg/kg. `CCC(CN)=C(c1ccccc1)c1ccccc1`: the LD50 is 148 mg/kg. For the molecule `CCCOP(=O)(SCCC)SCCC`, the LD50 is 129 mg/kg. For `O=C1CCCO1`, the LD50 was 1540 mg/kg. As for `O=CN(c1ncnc2c1ncn2C1CC1)C1CC1`, the LD50 is 175 mg/kg. Consider `NC1=NC(C(F)(F)F)(C(F)(F)F)NC1(C(F)(F)F)C(F)(F)F`, for which the LD50 was 19 mg/kg. For `COc1coc(CSP(=O)(OC)OC)cc1=O`, the LD50 was 23 mg/kg. `CCOC(=O)NS(=O)(=O)c1ccc(Cl)cc1`: the LD50 is 380 mg/kg.

As to `C=CCOc1ccc([C@H]2c3ccc(OC)cc3OC(C)(C)[C@@H]2c2ccccc2)cc1`, the LD50 was 500 mg/kg. In the case of `CC(=O)OC(c1ccccc1)C(Cl)(Cl)Cl` (stereo not drawn), the LD50 was 6800 mg/kg. On to `CN(C)CC/C=C1\c2ccccc2CSc2ccccc21`, for which the LD50 was 450 mg/kg. Consider `CCc1cccc2cc(C(O)CNC(C)(C)C)oc12` (stereo not drawn), for which the LD50 is 750 mg/kg. As for `C=C(C)C1CC=C(C)C(=O)C1` (racemic), the LD50 was 1640 mg/kg.

For `CC(C)CC(O)CC(CC(C)C)CC(C)C` (stereo not drawn), the LD50 is 16300 mg/kg. With `Cc1ccccc1OCC(O)CO` (stereo not drawn), the LD50 is 625 mg/kg. With `c1cc(N(CC2CO2)CC2CO2)ccc1OCC1CO1` (stereo not drawn), the LD50 was 1040 mg/kg. In the case of `CC(=O)Nc1ccc(OC(=O)c2ccccc2OC(C)=O)cc1`, the LD50 is 3500 mg/kg.

Consider `CC(C)C(=O)C(C)C`, for which the LD50 is 3540 mg/kg. In the case of `CCCCCCOCCOC(=O)CCCCC(=O)OCCOCCCCCC`, the LD50 was 4290 mg/kg. As to `CCN1CCCC1CNC(=O)c1cc(Cl)cc(Cl)c1OCc1ccccc1` (stereo not drawn), the LD50 was 576 mg/kg. As to `CCCCC(CC)OCCO` (stereo not drawn), the LD50 is 2280 mg/kg. As for `COP1(=S)OCc2ccccc2O1` (stereo not drawn), the LD50 is 102 mg/kg. Take `O=S1(=O)CCCCO1`: the LD50 is 500 mg/kg.

For the molecule `COP(=O)(OC)SCCSC`, the LD50 was 20 mg/kg. With `CCN(CC)CCSC(=O)C(c1ccccc1)c1ccccc1`, the LD50 is 2720 mg/kg. In the case of `CCC(O)CO` (stereo not drawn), the LD50 is 16000 mg/kg.

Regarding `Cc1ncc(CSSCc2cnc(C)c(O)c2C)c(C)c1O`, the LD50 is 2150 mg/kg.

For the molecule `Cc1cc(C(=O)c2ccccc2)ccc1N=Cc1cccc(OCCC(C)C)c1`, the LD50 was 2100 mg/kg.

Turning to `O=C(O)c1ccccc1Nc1cccc(C(F)(F)F)c1`, the LD50 was 249 mg/kg. On to `CC(C)(C)[C@H](O)/C(=C\c1ccc(Cl)cc1)n1cncn1`, for which the LD50 is 430 mg/kg.

As to `O=C1CCc2cc(C(O)CCCN3CCN(c4cccc(Cl)c4)CC3)ccc2N1` (stereo not drawn), the LD50 is 500 mg/kg. As to `C=CC(C)CCCC(C)(C)O` (stereo not drawn), the LD50 is 3600 mg/kg.

Consider `CN(C)C(=N)NC#N`, for which the LD50 was 3840 mg/kg. On to `CC(C)c1cccc(OC(=O)N(C)C)c1`, for which the LD50 is 160 mg/kg.

As to `CCN(CCCCOC(=O)c1ccc(OC)c(OC)c1)C(C)Cc1ccc(OC)cc1` (stereo not drawn), the LD50 is 1540 mg/kg. For the molecule `CCCCCCCCCCCCCC[N+](C)(C)Cc1ccccc1`, the LD50 was 426 mg/kg. Turning to `O=C(OCCCl)c1ccccc1C(=O)OCCCl`, the LD50 is 730 mg/kg. For the molecule `Fc1ccc2nc(C(F)(F)F)[nH]c2c1`, the LD50 is 16.6 mg/kg. Turning to `CCN(CCCC(=O)C1CCCCC1)C(C)Cc1ccc(OC)cc1` (stereo not drawn), the LD50 was 369 mg/kg.

On to `CC(=O)Nc1ccc(-c2ccc(N)cc2)cc1`, for which the LD50 was 1630 mg/kg.

For the molecule `COc1cc(OC)nc(NC(=O)NS(=O)(=O)c2cc(NC=O)ccc2C(=O)N(C)C)n1`, the LD50 was 3880 mg/kg. With `C=C1/C(=C/C=C2/CCC[C@]3(C)[C@@H]([C@H](C)CCCC(C)C)CC[C@@H]23)C[C@@H](O)C[C@@H]1O`, the LD50 is 0.34 mg/kg. As to `NC(=O)OCC(O)COc1ccc(Cl)cc1` (stereo not drawn), the LD50 is 744 mg/kg. As for `CC(CCl)N(C)C` (stereo not drawn), the LD50 was 166 mg/kg.

Turning to `CC1CN(CCCCCCCCNC(=O)Oc2ccc3c(c2)C2(C)CCN(C)C2N3C)CC(C)O1` (stereo not drawn), the LD50 was 56 mg/kg. Consider `COP(=S)(OC)Oc1cc(C)c(SC)c(C)c1`, for which the LD50 was 1000 mg/kg. Regarding `CNC(=O)ON=C1SC(=NC(C)C)SC1(C)C`, the LD50 was 8.9 mg/kg.

Consider `CCOC(=O)Cc1ccccc1`, for which the LD50 was 3300 mg/kg.

For `O=C=NCC1CCC(CN=C=O)CC1` (stereo not drawn), the LD50 was 1600 mg/kg. Regarding `O=[N+]([O-])O[C@H]1CO[C@H]2[C@@H]1OC[C@H]2O[N+](=O)[O-]`, the LD50 is 747 mg/kg.

As for `CC1(C)C2CCC(C=O)C1C2` (stereo not drawn), the LD50 is 2300 mg/kg. For the molecule `Cc1ccc2ncccc2c1`, the LD50 was 800 mg/kg. On to `C=CCC1=C(C)[C@@H](OC(=O)[C@@H]2[C@@H](C=C(C)C)C2(C)C)CC1=O`, for which the 50% lethal dose (LD50) is 430 mg/kg. On to `CNC(=O)Oc1ccc(C)c(N(C)C)c1`, for which the LD50 is 46 mg/kg. For the molecule `CCCCCCCCCC=O`, the LD50 is 3730 mg/kg.

As to `C#CCSP(=O)(OCC)OCC`, the LD50 was 18 mg/kg. As for `Cc1ccccn1`, the LD50 is 790 mg/kg.

For `CC(C)N=C1SC(=NOC(=O)N(C)SN(C)C(=O)ON=C2SC(=NC(C)C)SC2(C)C)C(C)(C)S1`, the LD50 is 113 mg/kg. Consider `C1CCNC1`, for which the LD50 is 300 mg/kg. As for `N#CCCN1CC=C(c2cccc(C(F)(F)F)c2)CC1`, the LD50 was 515 mg/kg. Turning to `O=C(NP(=O)(N1CC1)N1CC1)c1cc(I)ccc1I`, the LD50 was 500 mg/kg. For the molecule `CCOC(=S)C=Cc1ccc2c(c1)OCO2`, the LD50 was 940 mg/kg.

In the case of `CCOP(=O)(OCC)SC=C(Cl)Cl`, the 50% lethal dose (LD50) is 1.75 mg/kg.

As for `FC(F)(F)c1nc2c(Br)c(Cl)c(Cl)c(Br)c2[nH]1`, the LD50 is 3.43 mg/kg. Consider `CN1CCC(Oc2ccc(N)cc2)(c2ccccc2)CC1`, for which the LD50 is 410 mg/kg. For `COC(=O)C(C(=O)Cc1c(C)n(C(=O)c2ccc(Cl)cc2)c2ccc(OC)cc12)C(=O)OC`, the LD50 is 208 mg/kg. `CCCCn1c(=O)n(CCC)c(=O)c2c(NC)n(C(=O)OC)nc21`: the LD50 is 2380 mg/kg. As to `OC1(c2ccc(Cl)cc2)c2ccccc2C2=NCCN21` (stereo not drawn), the LD50 is 36.3 mg/kg. For the molecule `NCCCNCCSP(=O)(O)O`, the LD50 was 826 mg/kg. Consider `NC(=O)CC[C@H](N)C(=O)O`, for which the LD50 was 7500 mg/kg. `CCCCC(CC)COC(C[n+]1ccccc1)c1ccc(Cl)c(Cl)c1` (stereo not drawn): the LD50 was 250 mg/kg. For `CCOP(=O)(Cc1ccc(-c2nc3ccccc3s2)cc1)OCC`, the LD50 is 1560 mg/kg. `COC1OC(CNC(=O)N(CCCl)N=O)C(O)C(O)C1O` (stereo not drawn): the LD50 was 46.4 mg/kg. `C=CCC`: the LD50 is 4000 mg/kg. Consider `O=C(C(Cl)Cl)C(Cl)(Cl)Cl`, for which the LD50 was 200 mg/kg.

Turning to `C=CC(=O)OCC(=O)OCC`, the LD50 was 215 mg/kg. Consider `O=S(=O)(O)c1ccc(N2CCC(c3ccc(Cl)cc3)=N2)cc1`, for which the LD50 is 5530 mg/kg. In the case of `CCOP(=O)(OCC)Oc1cc(C)n(CC)c(=O)c1`, the LD50 is 1.62 mg/kg.
